The values that follow come from patent publication US10576060B2, “FK506 derivative maintaining nerve regeneration activity without immunosuppressive activity, and use thereof” (INTRON BIOTECHNOLOGY CO., LTD, priority 2014, dated 2020).

Assay [1] relates to rat pheochromocytoma cells (PC12). As to the kind of experiment: Nerve regeneration activity: neurite outgrowth in NGF-treated PC12 cells. Conditions: 10 nM compound with NGF 10 ng/mL, 96 hours. It counts as cell-based. The protocol: A relative nerve regeneration activity of the compound, compared to authentic FK506, was determined using rat pheochromocytoma cells (PC12) by the method described in Mo, S. J. et al. (J. Am. Chem. Soc. 2011, 133, 976-985). The PC12 cells were treated with nerve growth factor (NGF; KOMA Biotech; 10 ng/mL) which induces neurite outgrowth for 96 hours. 10 nM of FK506 or 9-deoxo-prolyl-FK506 was treated together or excluded. The neurite lengths were measured on photographic prints by the method Revill, W. P. et al. described (J. Pharmacol. Exp. Ther. 2002, 302, 1278-1285).
A relative neuroregenerative property of 31-O-demethyl-FK506 compared to authentic FK506 was determined using the same method as Example 3. (2).
A relative nerve regeneration property of 9-deoxo-31-O-demethyl-FK506 compared to authentic FK506 was determined using the same method as Example 3. (2).

Assay [2] concerns CD3/CD28-activated human T-cells. The experiment in a line: In vitro T-cell activity: interleukin-2 secretion by CD3/CD28-activated human T-cells. Type of assay: cell-based. Conditions: compound 0.1 nM, 16 to 20 hours. The protocol: A relative immunosuppressive property of the compound compared to authentic FK506 was determined using T-lymphocytes as described in Mo, S. J. et al. (J. Am. Chem. Soc. 2011, 133, 976-985). Simply, interleukin-2 secretions were quantified after treating the compound (0.1 nM) with CD3/CD28-activated human T-cells with the compounds for 16 to 20 hours.
A relative immunosuppressive property of 31-O-demethyl-FK506 compared to authentic FK506 was determined using the same method as Example 3. (1).

“Also recorded” adds a separate entry of the source.

On to `C=CC[C@@H]1/C=C(\C)C[C@H](C)C[C@H](OC)[C@H]2O[C@@](O)(CC(=O)N3CCCC[C@H]3C(=O)O[C@H](/C(C)=C/[C@@H]3CC[C@@H](O)[C@H](O)C3)[C@H](C)[C@@H](O)CC1=O)[C@H](C)C[C@@H]2OC` [9-deoxo-31-O-demethyl-FK506], for which, in assay [1], the “neurite outgrowth promotion (neurite length)” value (from here on “neurite outgrowth promotion”) is given as “excellent effect on neurite outgrowth promotion; also recorded: promotes neurite outgrowth in PC12 cells”. Also, in assay [2], the “interleukin-2 secretion (immunosuppressive activity)” value (from here on “interleukin-2 secretion”) is on record as “significantly increased to reach that of the normal group; also recorded: increased significantly to reach a normal level”.

For `C=CC[C@@H]1/C=C(\C)C[C@H](C)C[C@H](OC)[C@H]2O[C@@](O)(CC(=O)N3CCC[C@H]3C(=O)O[C@H](/C(C)=C/[C@@H]3CC[C@@H](O)[C@H](OC)C3)[C@H](C)[C@@H](O)CC1=O)[C@H](C)C[C@@H]2OC` [9-deoxo-prolyl-FK506], the “neurite outgrowth promotion” value in assay [1] is “excellent effect on neurite outgrowth promotion; also recorded: promotes neurite outgrowth in PC12 cells”. Moreover, in assay [2], the “interleukin-2 secretion” value is reported as “significantly increased to reach that of the normal group; also recorded: increased significantly to reach a normal level”.

`C=CC[C@@H]1/C=C(\C)C[C@H](C)C[C@H](OC)[C@H]2O[C@@](O)(C(=O)C(=O)N3CCCC[C@H]3C(=O)O[C@H](/C(C)=C/[C@@H]3CC[C@@H](O)[C@H](O)C3)[C@H](C)[C@@H](O)CC1=O)[C@H](C)C[C@@H]2OC` [31-O-demethyl-FK506]: the “neurite outgrowth promotion” value in assay [1] is “excellent effect on neurite outgrowth promotion; also recorded: promotes neurite outgrowth in PC12 cells”. For the same molecule, in assay [2], the “interleukin-2 secretion” value is “significantly increased to reach that of the normal group; also recorded: increased significantly to reach a normal level”.

Turning to `C=CC[C@@H]1/C=C(\C)C[C@H](C)C[C@H](OC)[C@H]2O[C@@](O)(C(=O)C(=O)N3CCCC[C@H]3C(=O)O[C@H](/C(C)=C/[C@@H]3CC[C@@H](O)[C@H](OC)C3)[C@H](C)[C@@H](O)CC1=O)[C@H](C)C[C@@H]2OC` [FK506], the “interleukin-2 secretion” value in assay [2] is listed as “decreased as much as the number of CD3/CD28-inactivated human T-cells”.
